In ChEMBL document CHEMBL3991601, “The target landscape of clinical kinase drugs” (Science, 2017):
The source made the active and inactive calls. Rule as the data show it, for most assays here: actives have a measured Kd and inactives only a lower limit.

Biological target: T1, Membrane-associated tyrosine- and threonine-specific cdc2-inhibitory kinase (Homo sapiens, UniProt Q99640)
T1 sequence (Q99640 whole entry): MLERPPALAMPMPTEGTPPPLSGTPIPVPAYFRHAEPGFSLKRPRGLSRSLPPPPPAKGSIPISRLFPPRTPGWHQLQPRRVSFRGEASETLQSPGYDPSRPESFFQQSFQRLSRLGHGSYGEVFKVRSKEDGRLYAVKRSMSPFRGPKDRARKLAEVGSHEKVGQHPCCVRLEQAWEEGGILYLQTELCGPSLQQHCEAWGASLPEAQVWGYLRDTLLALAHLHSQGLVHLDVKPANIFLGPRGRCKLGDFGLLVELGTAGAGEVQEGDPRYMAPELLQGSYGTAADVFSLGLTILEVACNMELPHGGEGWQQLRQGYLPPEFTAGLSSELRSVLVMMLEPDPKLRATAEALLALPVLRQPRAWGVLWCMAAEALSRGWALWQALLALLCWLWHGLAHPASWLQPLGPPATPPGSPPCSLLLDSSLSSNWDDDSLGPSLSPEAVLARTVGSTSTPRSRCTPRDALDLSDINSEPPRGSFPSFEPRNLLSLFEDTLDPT
Also: in the data inactive means no Kd found up to 30 µM.

| SMILES | Kd |
| --- | --- |
| Cc1ccc(NC(=O)c2ccc(CN3CC[C@H](N(C)C)C3)c(C(F)(F)F)c2)cc1Nc1nccc(-c2cncnc2)n1 [BAFETINIB] | > 30 µM (inactive) |
| Cc1cc2c(F)c(Oc3ncnn4cc(OC[C@@H](C)OC(=O)[C@H](C)N)c(C)c34)ccc2[nH]1 [BRIVANIB ALANINATE] | > 30 µM (inactive) |
| Cc1nc(N)sc1-c1ccnc(Nc2ccc(N3CCOCC3)cc2)n1 [CYC-116] | > 30 µM (inactive) |
| CCc1cnn2c(NCc3ccc[n+]([O-])c3)cc(N3CCCC[C@H]3CCO)nc12 [DINACICLIB] | > 30 µM (inactive) |

Biological target: T2, Calcium/calmodulin-dependent protein kinase type IV (Homo sapiens, UniProt Q16566)
T2 sequence (Q16566 whole entry): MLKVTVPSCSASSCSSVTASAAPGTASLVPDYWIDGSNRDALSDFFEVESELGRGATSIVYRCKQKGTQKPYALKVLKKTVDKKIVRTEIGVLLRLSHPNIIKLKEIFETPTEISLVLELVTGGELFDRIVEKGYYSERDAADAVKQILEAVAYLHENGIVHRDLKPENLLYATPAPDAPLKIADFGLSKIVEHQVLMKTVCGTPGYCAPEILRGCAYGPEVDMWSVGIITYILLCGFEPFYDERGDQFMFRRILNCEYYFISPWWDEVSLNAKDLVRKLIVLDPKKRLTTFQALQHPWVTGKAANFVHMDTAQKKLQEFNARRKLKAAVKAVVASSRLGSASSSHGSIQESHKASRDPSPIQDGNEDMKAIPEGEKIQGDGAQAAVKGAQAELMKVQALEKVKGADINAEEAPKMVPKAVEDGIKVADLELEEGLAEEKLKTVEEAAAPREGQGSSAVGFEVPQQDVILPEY

| SMILES | Kd |
| --- | --- |
| Cc1ccc(NC(=O)c2ccc(CN3CC[C@H](N(C)C)C3)c(C(F)(F)F)c2)cc1Nc1nccc(-c2cncnc2)n1 [BAFETINIB] | > 30 µM (inactive) |
| Cc1cc2c(F)c(Oc3ncnn4cc(OC[C@@H](C)OC(=O)[C@H](C)N)c(C)c34)ccc2[nH]1 [BRIVANIB ALANINATE] | > 30 µM (inactive) |
| Cc1nc(N)sc1-c1ccnc(Nc2ccc(N3CCOCC3)cc2)n1 [CYC-116] | > 30 µM (inactive) |
| CCc1cnn2c(NCc3ccc[n+]([O-])c3)cc(N3CCCC[C@H]3CCO)nc12 [DINACICLIB] | > 30 µM (inactive) |

Biological target: Cyclin-dependent kinase 5 (Homo sapiens, UniProt Q00535)
Sequence (Q00535 whole entry): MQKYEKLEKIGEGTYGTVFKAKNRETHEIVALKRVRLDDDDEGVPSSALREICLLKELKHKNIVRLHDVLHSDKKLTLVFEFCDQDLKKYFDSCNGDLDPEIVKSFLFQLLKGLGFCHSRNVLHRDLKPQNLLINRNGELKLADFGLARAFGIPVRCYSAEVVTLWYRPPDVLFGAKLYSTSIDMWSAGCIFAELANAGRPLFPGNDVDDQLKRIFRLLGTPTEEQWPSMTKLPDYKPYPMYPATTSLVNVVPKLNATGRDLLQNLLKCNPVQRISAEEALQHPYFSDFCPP

| SMILES | Kd |
| --- | --- |
| Cc1ccc(NC(=O)c2ccc(CN3CC[C@H](N(C)C)C3)c(C(F)(F)F)c2)cc1Nc1nccc(-c2cncnc2)n1 [BAFETINIB] | > 30 µM (inactive) |
| Cc1cc2c(F)c(Oc3ncnn4cc(OC[C@@H](C)OC(=O)[C@H](C)N)c(C)c34)ccc2[nH]1 [BRIVANIB ALANINATE] | > 30 µM (inactive) |

Biological target: Aurora kinase B (Homo sapiens, UniProt Q96GD4)

| SMILES | Kd |
| --- | --- |
| Cc1ccc(NC(=O)c2ccc(CN3CC[C@H](N(C)C)C3)c(C(F)(F)F)c2)cc1Nc1nccc(-c2cncnc2)n1 [BAFETINIB] | > 30 µM (inactive) |
| Cc1cc2c(F)c(Oc3ncnn4cc(OC[C@@H](C)OC(=O)[C@H](C)N)c(C)c34)ccc2[nH]1 [BRIVANIB ALANINATE] | > 30 µM (inactive) |

Biological target: T3, Very long-chain specific acyl-CoA dehydrogenase, mitochondrial (Homo sapiens, UniProt P49748)
T3 sequence (P49748 whole entry): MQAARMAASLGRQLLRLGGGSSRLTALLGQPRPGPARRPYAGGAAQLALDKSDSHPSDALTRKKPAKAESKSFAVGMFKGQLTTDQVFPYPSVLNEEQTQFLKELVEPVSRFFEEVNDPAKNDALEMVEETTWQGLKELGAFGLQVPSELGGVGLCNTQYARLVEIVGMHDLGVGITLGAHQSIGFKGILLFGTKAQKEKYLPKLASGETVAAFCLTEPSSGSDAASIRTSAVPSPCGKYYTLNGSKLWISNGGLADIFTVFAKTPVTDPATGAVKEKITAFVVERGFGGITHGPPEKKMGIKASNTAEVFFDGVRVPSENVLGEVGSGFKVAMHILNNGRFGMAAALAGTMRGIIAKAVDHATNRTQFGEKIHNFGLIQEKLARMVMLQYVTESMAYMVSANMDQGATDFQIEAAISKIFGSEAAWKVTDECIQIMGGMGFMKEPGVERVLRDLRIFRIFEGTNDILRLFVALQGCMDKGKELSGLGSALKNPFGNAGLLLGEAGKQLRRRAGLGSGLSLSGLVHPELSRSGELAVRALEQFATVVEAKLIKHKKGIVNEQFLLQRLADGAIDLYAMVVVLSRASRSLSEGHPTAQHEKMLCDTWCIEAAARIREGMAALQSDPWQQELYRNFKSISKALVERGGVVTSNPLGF

| SMILES | Kd |
| --- | --- |
| Cc1ccc(NC(=O)c2ccc(CN3CC[C@H](N(C)C)C3)c(C(F)(F)F)c2)cc1Nc1nccc(-c2cncnc2)n1 [BAFETINIB] | > 30 µM (inactive) |
| Cc1cc2c(F)c(Oc3ncnn4cc(OC[C@@H](C)OC(=O)[C@H](C)N)c(C)c34)ccc2[nH]1 [BRIVANIB ALANINATE] | > 30 µM (inactive) |
| Cc1nc(N)sc1-c1ccnc(Nc2ccc(N3CCOCC3)cc2)n1 [CYC-116] | > 30 µM (inactive) |
| CCc1cnn2c(NCc3ccc[n+]([O-])c3)cc(N3CCCC[C@H]3CCO)nc12 [DINACICLIB] | > 30 µM (inactive) |

Biological target: Ribosomal protein S6 kinase alpha-1 (Homo sapiens, UniProt Q15418)
Sequence (Q15418 whole entry): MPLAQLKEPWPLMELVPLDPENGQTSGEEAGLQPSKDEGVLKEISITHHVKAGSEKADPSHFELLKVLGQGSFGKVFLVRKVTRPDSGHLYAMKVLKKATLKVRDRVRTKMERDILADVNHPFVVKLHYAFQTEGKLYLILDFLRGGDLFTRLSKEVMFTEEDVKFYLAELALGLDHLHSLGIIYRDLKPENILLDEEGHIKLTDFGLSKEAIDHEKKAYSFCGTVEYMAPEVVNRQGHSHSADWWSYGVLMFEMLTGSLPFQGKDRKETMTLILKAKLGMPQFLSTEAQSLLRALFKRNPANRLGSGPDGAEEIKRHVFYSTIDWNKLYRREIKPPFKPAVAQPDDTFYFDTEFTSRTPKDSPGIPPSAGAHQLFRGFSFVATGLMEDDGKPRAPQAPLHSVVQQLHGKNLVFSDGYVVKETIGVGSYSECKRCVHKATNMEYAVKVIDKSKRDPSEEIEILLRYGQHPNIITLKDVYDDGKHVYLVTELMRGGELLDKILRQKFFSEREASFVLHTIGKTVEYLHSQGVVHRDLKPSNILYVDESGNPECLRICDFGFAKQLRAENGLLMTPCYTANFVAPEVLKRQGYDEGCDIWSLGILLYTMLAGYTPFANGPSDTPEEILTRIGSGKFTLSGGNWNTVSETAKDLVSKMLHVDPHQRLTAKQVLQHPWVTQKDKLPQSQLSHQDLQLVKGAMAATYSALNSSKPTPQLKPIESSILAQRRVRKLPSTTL

| SMILES | Kd |
| --- | --- |
| Cc1ccc(NC(=O)c2ccc(CN3CC[C@H](N(C)C)C3)c(C(F)(F)F)c2)cc1Nc1nccc(-c2cncnc2)n1 [BAFETINIB] | > 30 µM (inactive) |
| Cc1cc2c(F)c(Oc3ncnn4cc(OC[C@@H](C)OC(=O)[C@H](C)N)c(C)c34)ccc2[nH]1 [BRIVANIB ALANINATE] | > 30 µM (inactive) |
| Cc1nc(N)sc1-c1ccnc(Nc2ccc(N3CCOCC3)cc2)n1 [CYC-116] | > 30 µM (inactive) |
| CCc1cnn2c(NCc3ccc[n+]([O-])c3)cc(N3CCCC[C@H]3CCO)nc12 [DINACICLIB] | > 30 µM (inactive) |

Biological target: Serine/threonine-protein kinase 10 (Homo sapiens, UniProt O94804)
Sequence (O94804 whole entry): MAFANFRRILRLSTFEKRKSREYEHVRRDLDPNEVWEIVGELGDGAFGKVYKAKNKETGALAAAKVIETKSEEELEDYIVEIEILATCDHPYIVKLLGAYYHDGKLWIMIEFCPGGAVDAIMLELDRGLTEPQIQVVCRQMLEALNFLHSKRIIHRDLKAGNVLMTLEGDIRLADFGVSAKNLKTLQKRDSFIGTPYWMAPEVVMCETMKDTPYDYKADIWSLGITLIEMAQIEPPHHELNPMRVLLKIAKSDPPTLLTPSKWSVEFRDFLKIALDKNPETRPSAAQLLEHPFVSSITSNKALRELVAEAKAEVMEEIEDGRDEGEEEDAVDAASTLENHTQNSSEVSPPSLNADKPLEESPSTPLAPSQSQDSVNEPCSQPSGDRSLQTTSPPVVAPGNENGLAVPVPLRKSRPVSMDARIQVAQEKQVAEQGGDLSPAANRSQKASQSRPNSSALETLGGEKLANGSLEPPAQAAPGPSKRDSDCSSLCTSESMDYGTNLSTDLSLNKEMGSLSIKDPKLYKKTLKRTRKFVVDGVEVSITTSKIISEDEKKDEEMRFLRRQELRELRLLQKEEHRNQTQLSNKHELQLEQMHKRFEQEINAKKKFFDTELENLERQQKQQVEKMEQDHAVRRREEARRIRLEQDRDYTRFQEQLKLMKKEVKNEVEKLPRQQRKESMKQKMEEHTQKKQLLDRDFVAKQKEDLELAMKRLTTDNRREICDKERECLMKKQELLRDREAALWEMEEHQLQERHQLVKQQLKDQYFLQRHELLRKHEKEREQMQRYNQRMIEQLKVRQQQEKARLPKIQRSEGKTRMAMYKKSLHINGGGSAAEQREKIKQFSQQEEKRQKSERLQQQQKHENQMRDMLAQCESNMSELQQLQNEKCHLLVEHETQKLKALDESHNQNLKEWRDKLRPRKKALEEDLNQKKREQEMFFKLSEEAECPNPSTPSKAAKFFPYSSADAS

| SMILES | Kd |
| --- | --- |
| Cc1ccc(NC(=O)c2ccc(CN3CC[C@H](N(C)C)C3)c(C(F)(F)F)c2)cc1Nc1nccc(-c2cncnc2)n1 [BAFETINIB] | > 30 µM (inactive) |
| Cc1cc2c(F)c(Oc3ncnn4cc(OC[C@@H](C)OC(=O)[C@H](C)N)c(C)c34)ccc2[nH]1 [BRIVANIB ALANINATE] | 8.44 µM (active) |
| CCc1cnn2c(NCc3ccc[n+]([O-])c3)cc(N3CCCC[C@H]3CCO)nc12 [DINACICLIB] | > 30 µM (inactive) |

Biological target: Insulin receptor (Homo sapiens, UniProt P06213)
Sequence (P06213 28-758 limits assumed): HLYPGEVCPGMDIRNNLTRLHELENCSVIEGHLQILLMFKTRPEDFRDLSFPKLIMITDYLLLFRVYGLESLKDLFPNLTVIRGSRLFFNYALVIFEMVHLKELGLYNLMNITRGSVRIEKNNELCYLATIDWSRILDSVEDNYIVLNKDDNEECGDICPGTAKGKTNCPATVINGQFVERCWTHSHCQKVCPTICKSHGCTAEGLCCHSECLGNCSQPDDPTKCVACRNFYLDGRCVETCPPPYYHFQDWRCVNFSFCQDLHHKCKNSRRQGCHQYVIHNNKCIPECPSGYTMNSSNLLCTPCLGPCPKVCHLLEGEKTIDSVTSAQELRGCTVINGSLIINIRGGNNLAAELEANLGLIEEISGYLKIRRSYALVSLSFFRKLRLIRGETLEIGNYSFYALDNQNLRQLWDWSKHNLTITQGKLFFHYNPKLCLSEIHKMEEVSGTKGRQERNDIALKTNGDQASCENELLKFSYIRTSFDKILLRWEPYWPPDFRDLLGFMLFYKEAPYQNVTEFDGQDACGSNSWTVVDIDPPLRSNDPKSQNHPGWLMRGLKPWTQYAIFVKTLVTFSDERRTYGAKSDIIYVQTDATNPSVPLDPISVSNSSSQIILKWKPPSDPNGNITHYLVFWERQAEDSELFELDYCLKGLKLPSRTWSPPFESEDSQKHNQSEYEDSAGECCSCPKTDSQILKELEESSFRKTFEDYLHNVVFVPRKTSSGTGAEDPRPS
Sequence (P06213 763-1382 limits assumed): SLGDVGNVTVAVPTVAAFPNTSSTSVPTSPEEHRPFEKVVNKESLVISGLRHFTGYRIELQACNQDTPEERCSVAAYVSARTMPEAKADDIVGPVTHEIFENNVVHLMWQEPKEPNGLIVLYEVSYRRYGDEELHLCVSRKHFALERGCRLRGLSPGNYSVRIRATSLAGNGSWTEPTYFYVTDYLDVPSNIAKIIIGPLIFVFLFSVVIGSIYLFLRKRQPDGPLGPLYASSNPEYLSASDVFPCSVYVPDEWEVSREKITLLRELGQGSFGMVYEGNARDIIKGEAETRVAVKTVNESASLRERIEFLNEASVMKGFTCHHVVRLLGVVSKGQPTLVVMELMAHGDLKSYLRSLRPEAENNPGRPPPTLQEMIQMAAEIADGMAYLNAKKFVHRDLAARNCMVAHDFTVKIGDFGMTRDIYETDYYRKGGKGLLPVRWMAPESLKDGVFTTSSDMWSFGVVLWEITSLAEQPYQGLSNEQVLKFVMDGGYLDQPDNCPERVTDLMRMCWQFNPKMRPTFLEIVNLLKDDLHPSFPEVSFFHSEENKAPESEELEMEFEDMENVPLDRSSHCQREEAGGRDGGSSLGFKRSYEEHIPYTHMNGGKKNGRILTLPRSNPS

| SMILES | Kd |
| --- | --- |
| Cc1ccc(NC(=O)c2ccc(CN3CC[C@H](N(C)C)C3)c(C(F)(F)F)c2)cc1Nc1nccc(-c2cncnc2)n1 [BAFETINIB] | > 30 µM (inactive) |
| Cc1cc2c(F)c(Oc3ncnn4cc(OC[C@@H](C)OC(=O)[C@H](C)N)c(C)c34)ccc2[nH]1 [BRIVANIB ALANINATE] | > 30 µM (inactive) |
| CCc1cnn2c(NCc3ccc[n+]([O-])c3)cc(N3CCCC[C@H]3CCO)nc12 [DINACICLIB] | > 30 µM (inactive) |

Biological target: Cyclin-dependent kinase 7 (Homo sapiens, UniProt P50613)
Sequence (P50613 whole entry): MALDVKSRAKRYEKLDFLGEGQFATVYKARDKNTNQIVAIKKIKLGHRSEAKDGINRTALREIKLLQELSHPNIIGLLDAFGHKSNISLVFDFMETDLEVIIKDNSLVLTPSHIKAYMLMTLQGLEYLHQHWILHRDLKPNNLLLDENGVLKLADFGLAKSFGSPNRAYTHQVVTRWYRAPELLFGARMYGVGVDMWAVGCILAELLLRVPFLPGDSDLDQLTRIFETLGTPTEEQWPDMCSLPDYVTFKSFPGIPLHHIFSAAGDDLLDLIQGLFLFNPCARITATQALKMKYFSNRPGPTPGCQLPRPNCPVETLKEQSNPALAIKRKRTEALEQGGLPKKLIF

| SMILES | Kd |
| --- | --- |
| Cc1ccc(NC(=O)c2ccc(CN3CC[C@H](N(C)C)C3)c(C(F)(F)F)c2)cc1Nc1nccc(-c2cncnc2)n1 [BAFETINIB] | > 30 µM (inactive) |
| Cc1cc2c(F)c(Oc3ncnn4cc(OC[C@@H](C)OC(=O)[C@H](C)N)c(C)c34)ccc2[nH]1 [BRIVANIB ALANINATE] | > 30 µM (inactive) |
| Cc1nc(N)sc1-c1ccnc(Nc2ccc(N3CCOCC3)cc2)n1 [CYC-116] | > 30 µM (inactive) |

Biological target: T4, Serine/threonine-protein kinase D3 (Homo sapiens, UniProt O94806)
T4 sequence (O94806 whole entry): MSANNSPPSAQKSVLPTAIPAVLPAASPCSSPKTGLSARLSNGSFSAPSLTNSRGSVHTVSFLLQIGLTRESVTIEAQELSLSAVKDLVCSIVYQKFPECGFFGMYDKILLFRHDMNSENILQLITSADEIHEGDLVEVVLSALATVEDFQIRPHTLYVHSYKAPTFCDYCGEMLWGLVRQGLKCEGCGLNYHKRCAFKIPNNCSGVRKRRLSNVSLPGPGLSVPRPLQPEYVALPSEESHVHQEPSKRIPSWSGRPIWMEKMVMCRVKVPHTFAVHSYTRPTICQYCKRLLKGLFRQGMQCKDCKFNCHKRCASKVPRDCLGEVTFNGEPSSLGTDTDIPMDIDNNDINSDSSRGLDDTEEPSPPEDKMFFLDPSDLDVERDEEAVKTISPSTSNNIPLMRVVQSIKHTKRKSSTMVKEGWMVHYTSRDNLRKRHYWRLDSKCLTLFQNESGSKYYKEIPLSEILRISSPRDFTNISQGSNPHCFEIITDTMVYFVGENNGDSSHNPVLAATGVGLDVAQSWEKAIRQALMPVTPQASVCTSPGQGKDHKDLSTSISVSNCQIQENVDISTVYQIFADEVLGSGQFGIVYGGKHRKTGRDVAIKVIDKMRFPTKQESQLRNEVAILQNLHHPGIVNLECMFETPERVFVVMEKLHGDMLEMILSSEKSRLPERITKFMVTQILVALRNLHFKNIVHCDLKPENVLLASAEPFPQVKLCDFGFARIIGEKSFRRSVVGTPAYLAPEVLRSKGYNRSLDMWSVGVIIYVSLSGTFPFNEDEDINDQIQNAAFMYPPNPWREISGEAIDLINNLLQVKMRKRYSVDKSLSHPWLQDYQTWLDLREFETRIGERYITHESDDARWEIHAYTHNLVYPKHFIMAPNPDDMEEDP

| SMILES | Kd |
| --- | --- |
| Cc1ccc(NC(=O)c2ccc(CN3CC[C@H](N(C)C)C3)c(C(F)(F)F)c2)cc1Nc1nccc(-c2cncnc2)n1 [BAFETINIB] | > 30 µM (inactive) |
| Cc1cc2c(F)c(Oc3ncnn4cc(OC[C@@H](C)OC(=O)[C@H](C)N)c(C)c34)ccc2[nH]1 [BRIVANIB ALANINATE] | > 30 µM (inactive) |

Biological target: Serine/threonine-protein kinase SIK3 (Homo sapiens, UniProt Q9Y2K2)
Sequence (Q9Y2K2 whole entry): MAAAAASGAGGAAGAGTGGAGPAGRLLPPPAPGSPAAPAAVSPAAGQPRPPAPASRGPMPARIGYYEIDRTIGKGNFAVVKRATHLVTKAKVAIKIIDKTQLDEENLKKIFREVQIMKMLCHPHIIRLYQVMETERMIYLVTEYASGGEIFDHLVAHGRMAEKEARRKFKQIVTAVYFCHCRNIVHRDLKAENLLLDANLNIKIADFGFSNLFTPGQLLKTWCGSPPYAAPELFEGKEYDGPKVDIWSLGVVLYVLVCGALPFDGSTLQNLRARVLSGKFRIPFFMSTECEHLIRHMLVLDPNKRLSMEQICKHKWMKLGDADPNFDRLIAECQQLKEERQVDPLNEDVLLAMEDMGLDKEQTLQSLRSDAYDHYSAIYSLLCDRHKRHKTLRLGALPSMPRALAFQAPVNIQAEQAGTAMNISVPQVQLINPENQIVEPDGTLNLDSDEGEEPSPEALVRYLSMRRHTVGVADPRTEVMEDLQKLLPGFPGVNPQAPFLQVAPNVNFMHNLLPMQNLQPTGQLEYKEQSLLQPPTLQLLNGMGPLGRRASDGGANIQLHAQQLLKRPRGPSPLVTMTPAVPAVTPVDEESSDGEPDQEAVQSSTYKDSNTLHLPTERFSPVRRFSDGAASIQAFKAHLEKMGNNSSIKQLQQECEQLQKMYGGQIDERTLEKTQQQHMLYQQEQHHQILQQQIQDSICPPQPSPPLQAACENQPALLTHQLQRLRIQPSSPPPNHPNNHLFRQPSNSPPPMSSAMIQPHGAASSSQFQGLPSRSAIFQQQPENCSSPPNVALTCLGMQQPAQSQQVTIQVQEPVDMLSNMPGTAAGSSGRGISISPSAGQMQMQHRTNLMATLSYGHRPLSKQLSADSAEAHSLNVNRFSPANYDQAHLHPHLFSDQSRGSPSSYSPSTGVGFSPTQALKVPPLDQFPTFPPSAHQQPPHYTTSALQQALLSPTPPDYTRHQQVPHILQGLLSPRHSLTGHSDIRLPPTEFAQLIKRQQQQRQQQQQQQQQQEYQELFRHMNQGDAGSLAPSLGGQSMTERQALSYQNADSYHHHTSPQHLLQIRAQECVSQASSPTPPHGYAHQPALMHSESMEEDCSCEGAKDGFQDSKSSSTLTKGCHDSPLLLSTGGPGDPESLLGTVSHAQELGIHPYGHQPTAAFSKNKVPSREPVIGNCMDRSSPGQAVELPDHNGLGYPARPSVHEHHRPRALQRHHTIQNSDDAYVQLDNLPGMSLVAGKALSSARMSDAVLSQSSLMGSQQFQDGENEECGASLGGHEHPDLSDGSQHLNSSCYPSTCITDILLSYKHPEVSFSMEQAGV

| SMILES | Kd |
| --- | --- |
| Cc1ccc(NC(=O)c2ccc(CN3CC[C@H](N(C)C)C3)c(C(F)(F)F)c2)cc1Nc1nccc(-c2cncnc2)n1 [BAFETINIB] | > 30 µM (inactive) |
| Cc1cc2c(F)c(Oc3ncnn4cc(OC[C@@H](C)OC(=O)[C@H](C)N)c(C)c34)ccc2[nH]1 [BRIVANIB ALANINATE] | > 30 µM (inactive) |
| CCc1cnn2c(NCc3ccc[n+]([O-])c3)cc(N3CCCC[C@H]3CCO)nc12 [DINACICLIB] | > 30 µM (inactive) |

Biological target: DNA topoisomerase 2-alpha (Homo sapiens, UniProt P11388)

| SMILES | Kd |
| --- | --- |
| Cc1nc(N)sc1-c1ccnc(Nc2ccc(N3CCOCC3)cc2)n1 [CYC-116] | > 30 µM (inactive) |
| CCc1cnn2c(NCc3ccc[n+]([O-])c3)cc(N3CCCC[C@H]3CCO)nc12 [DINACICLIB] | > 30 µM (inactive) |
